Experimental data as given in patent publication US20260109714A1, “PYRIMIDINE-FUSED RING COMPOUND, AND PREPARATION METHOD THEREFOR AND USE THEREOF” (GENFLEET THERAPEUTICS (SHANGHAI) INC., priority 2022, published 2026).

Legend:
[1] = system: AsPC-1 human pancreatic cancer cell with KRAS G12D mutation; test: Cell proliferation inhibition experiment, 3D CellTiter-Glo, AsPC-1; type: cell-based; details: Homo sapiens, ASPC1, 120 h, AsPC-1 cells, 3D spheroid, 5 days
Procedure, shortened: (§1)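 3D spheroids (800 AsPC-1 or 400 AGS cells/well) established overnight, then treated with 3.16-fold compound dilutions (0.1% DMSO) for 5 days. Viability read by CellTiter-Glo 3D luminescence; inhibition normalised to DMSO and medium blank, IC50 by four-parameter fit.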

[2] = system: AGS human gastric cancer cell line with KRAS G12D mutation; test: Cell proliferation inhibition experiment, 3D CellTiter-Glo, AGS; type: cell-based; details: Homo sapiens, 120 h, AGS cells, 3D spheroid, 5 days
Procedure, shortened: as §1

in vivo = details: male, CD-1, mouse, po, 30 mg/kg
Procedure: Test objective: Male CD-1 mice were used as test animals. The drug concentrations in plasma of mice at various times were determined by LC/MS/MS after intravenous and oral administration of the test compounds. The pharmacokinetic behavior of the test compounds in mice was studied and their pharmacokinetic characteristics were evaluated.
Test methods: test animals: 60 healthy adult male CD-1 mice, aged 6-8 weeks and weighing about 30 g, and divided into 10 groups, including IV groups (intravenous injection group, five groups), with 6 mice in each group; and PO groups (oral administration group, five groups), with 6 mice in each group.
Preparation of drug solution: IV group: Taking 10 mL sample solution as an example, 2 mg sample was weighed, 0.5 mL DMSO and 1 mL Solutol HS 15 were sequentially added, and then 8.5 mL 6% HP-β-CD was added, and stirred ultrasonically to obtain a clear solution of 0.2 mg/mL.
PO group 1: Taking 10 mL sample solution as an example, 10 mg sample was weighed, 0.5 mL DMSO and 1 mL Solutol HS 15 were sequentially added, and then 8.5 mL 6% HP-β-CD was added, and stirred ultrasonically to obtain a 1 mg/mL solution.
PO group 2: A 3 mg/mL solution of the sample was prepared according to the preparation method for PO group 1.
Administration: After overnight fasting, the mice in the IV group were administered with a volume of 5 mL/kg at a dose of 1 mg/kg.
PO group 1: The mice were administered with a volume of 10 mL/kg at a dose of 10 mg/kg.
PO group 2: The mice were administered with a volume of 10 mL/kg at a dose of 30 mg/kg.
Experimental operations: Male CD-1 mice in the intravenous injection group and oral administration group were given the test compound, respectively. After that, 50 μl of blood was periodically collected into a K2EDTA anticoagulation tube at 0.0833, 0.25, 0.5, 1, 2, 4, 6, 8 and 24 hrs, and the plasma was separated by centrifugation at 4° C. and 8000 rpm for 15 min. The plasma was stored in dry ice at −80° C. 4 hrs after administration, the animals were allowed to free access to food. The contents of the test compounds in plasma of mice after intravenous and oral administration were determined by LC/MS/MS. The linear range of the method was 1-3000 ng/ml. The plasma samples were treated with acetonitrile to precipitate the protein and then analyzed.

AGS p-ERK = test: Cell assay for p-ERK (HTRF, Advance ERK phospho-T202/Y204 kit); type: cell-based, human; details: Homo sapiens; AGS cells (KRAS G12D), 3 hrs with compound, inhibition of p-ERK level
Procedure, shortened: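 KRAS G12D AGS gastric cancer cells were plated overnight, then exposed 3 h to 3.16-fold compound dilutions at 0.1% DMSO final. Lysates were probed for ERK phospho-T202/Y204 by HTRF after 4 h. Inhibition relative to DMSO and blank was fitted by four-parameter regression for IC50.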

SMILES: [2H]C([2H])([2H])[C@@H]1Oc2nc(-c3cc(N)cc(Cl)c3C(F)(F)F)c(F)c3nc(OC[C@@]45CCCN4CC(=C(F)F)C5)nc(c23)N2C[C@H]3CC[C@H](N3)[C@@H]12 [Z1054, 3-chloro-5-((5S,5aS,6S,9R)-12-(((S)-2-(difluoromethylene)tetrahydro-1H-pyrrolizin-7a(5H)-yl)methoxy)-1-fluoro-5-(methyl-d3)-5a,6,7,8,9,10-hexahydro-5H-4-oxa-3,10a,11,13,14-pentaaza-6,9-methanonaphtho[1,8-ab]hepten-2-yl)-4-(trifluoromethyl) aniline]
- IC50 [1]: 1.29 nM
- IC50 [2]: 0.37 nM
- AUC(0-t) (in vivo): 3250 ng·h/mL
- bioavailability (in vivo): 29.4%
- IC50 (AGS p-ERK): 0.43 nM
